The values below come from publication PMC8887546, “Design and Synthesis of Brain Penetrant Glycopeptide Analogues of PACAP With Neuroprotective Potential for Traumatic Brain Injury and Parkinsonism” (Frontiers in drug discovery, 2022).

The test system of assay [1] is C57BL/6 mice, diffuse TBI. Kind of assay: Plasma cytokine measurement after TBI. In kind it is in vivo, mouse. The settings on record: 10 mg/kg i.p. 30 min prior to TBI. As to the method:
30 min prior to TBI or sham injury, mice were randomly assigned to a therapeutic group and received an intraperitoneal injection of 2LS80Mel (10 mg/kg) or sterile saline (0.25 ml). Groups were as follows: TBI-2LS80Mel n = 17; TBI-vehicle n = 17; sham n = 22 (vehicle n = 11, 2LS80Mel n = 11).
For injury induction 24 h post-surgery, mice were re-anesthetized with 5% isoflurane delivered for 3 min. The cap was removed from the injury-hub assembly and the dura was visually inspected through the hub to ensure it was intact with no debris. The hub was then filled with normal saline and attached to an extension tube connected to the male end of the fluid percussion device (Custom Design and Fabrication, Virginia Commonwealth University, Richmond, VA). An injury of moderate severity for our injury model (1.4 atm) was administered by releasing the pendulum onto the fluid-filled cylinder following the return of a toe-pinch response. Sham mice underwent the same procedure except the pendulum was not released. Injured mice were monitored for presence of a forearm fencing response and righting reflex times were recorded as indicators of injury severity ([Hosseini and Lifshitz, 2009]). The righting reflex time is the total time from the initial impact until the mouse spontaneously rights itself from a supine position. The fencing response is a tonic posturing characterized by extension and flexion of opposite arms that has been validated as an overt indicator of injury severity ([Hosseini and Lifshitz, 2009]). The injury hub was removed, and the brain was inspected for uniform herniation and integrity of the dura. The incision was cleaned with saline and closed using sutures. Moderately brain-injured mice had righting reflex recovery times greater than 4 min and a positive fencing response. Righting reflex times for TBI-2LS80Mel mice were 477.13 ± 83.13 s and the righting reflex times for TBI-vehicle mice were 417.05 ± 107.47 s. […] After spontaneously righting, mice were placed in a heated recovery cage and monitored until they were ambulatory (approximately 5–15 min) before being returned to their piezoelectric sleep cage (see below). […]
Approximately 75 μl of blood were centrifuged to collect approximately 40 μl of plasma from each animal at 2 and 14 days post-injury ([Saber et al., 2020]). Multiplex cytokine assays (MILLIPLEX MAP Mouse Cytokine/Chemokine Magnetic Bead Panel, Millipore Sigma, Burlington, MA) quantified interleukin (IL)-1β, IL-6, and tumor necrosis factor (TNF)-α in peripheral blood. […] Fluorescent intensity was measured on a Bio-Plex® 200 system (Bio-Rad Laboratories, Hercules, CA) and corresponded to the concentration of each analyte in plasma samples. Duplicate values were averaged and analyzed between groups. […]

The test system of assay [2] is Sprague Dawley rats, 6-OHDA lesion. The assay is described as follows: Unbiased stereology of TH-positive neurons in SNc (study 1). The assay is classed as in vivo, rat. As to conditions: mild lesion (25%), 15 mg/kg i.p. 6 h prior to and 24 h post-lesion. As to the method: Rats were treated with 2LS98Lac or saline (vehicle) as outlined in the Schemes in Figures 9A,B via intraperitoneal (i.p.) injection (15 mg/kg). All animals were made hemi-parkinsonian with unilateral, striatal 6-hydroxydopamine (Sigma Aldrich, St. Louis, MO) injections. After surgery, behavioral assessments were done at 2- and 4-weeks post-surgery. 24 h after the last test animals were either euthanized and whole brains were harvested for future biochemical analysis or perfused and brains collected for immunohistochemistry and stereological assessment of tyrosine hydroxylase-positive (TH+) cells remaining in the SNc. In study 1: n = 16 each group were included, and all underwent the behavioral analysis: n = 16, and for the stereology in the SNc, n = 8 each group was used. In study 2: n = 23 each group were included. […]
Stereological probes were applied using a Zeiss Imager M2 microscope (Carl Zeiss, Jena, Germany) equipped with StereoInvestigator software (MBF Bioscience, VT, United States) according to previously published methods ([Corenblum et al., 2015]; [Anandhan et al., 2021]). Using the optical fractionator probe, cells were counted under the ×63 oil immersion objective by a blinded observer. TH+ cells were counted in sections 480 μm apart using a grid size of 170 × 100 μm and counting frame size of 75 × 75 μm. […]

With `CC[C@H](C)[C@H](NC(=O)CNC(=O)[C@H](CC(=O)O)NC(=O)[C@H](CO)NC(=O)[C@@H](N)Cc1c[nH]cn1)C(=O)N[C@@H](Cc1ccccc1)C(=O)N[C@H](C(=O)N[C@@H](CC(=O)O)C(=O)N[C@@H](CO)C(=O)N[C@@H](Cc1ccc(O)cc1)C(=O)N[C@@H](CO)C(=O)N[C@@H](CCCNC(=N)N)C(=O)N[C@@H](Cc1ccc(O)cc1)C(=O)N[C@@H](CCCNC(=N)N)C(=O)N[C@@H](CCCCN)C(=O)N[C@@H](CCC(N)=O)C(=O)N[C@@H](CC(C)C)C(=O)N[C@@H](C)C(=O)N[C@H](C(=O)N[C@@H](CCCCN)C(=O)N[C@@H](CCCCN)C(=O)N[C@@H](Cc1ccc(O)cc1)C(=O)N[C@@H](CC(C)C)C(=O)N[C@@H](C)C(=O)N[C@@H](C)C(=O)N[C@H](C(=O)N[C@@H](CC(C)C)C(=O)N[C@@H](CO[C@@H]1O[C@H](CO[C@H]2O[C@H](CO)[C@H](O)[C@H](O)[C@H]2O)[C@@H](O)[C@H](O)[C@H]1O)C(N)=O)C(C)C)C(C)C)[C@@H](C)O` [Compound 2LS80Mel], in assay [1] (2 DPI), the “Plasma IL-1β” value is recorded as “no differences”, the “Plasma IL-6” value was “no differences” and the “Plasma TNF-α” value was “no differences”. Also, the “Peripheral cytokines (IL-1β, IL-6, TNF-α)” value in assay [1] (14 DPI, data not shown) is “no differences”.
On to `[2H]C([2H])([2H])C([2H])(C([2H])([2H])[2H])[C@]([2H])(NC(=O)[C@H](C)NC(=O)[C@H](C)NC(=O)[C@H](CC(C)C)NC(=O)[C@H](Cc1ccc(O)cc1)NC(=O)[C@H](CCCCN)NC(=O)[C@H](CCCCN)NC(=O)[C@@]([2H])(NC(=O)[C@H](C)NC(=O)[C@H](CC(C)C)NC(=O)[C@H](CCC(N)=O)NC(=O)[C@H](CCCCN)NC(=O)[C@H](CCCNC(=N)N)NC(=O)[C@H](Cc1ccc(O)cc1)NC(=O)[C@H](CCCNC(=N)N)NC(=O)[C@H](CO)NC(=O)[C@H](Cc1ccc(O)cc1)NC(=O)[C@H](CO)NC(=O)[C@H](CC(=O)O)NC(=O)[C@@H](NC(=O)[C@H](Cc1ccccc1)NC(=O)[C@@H](NC(=O)CNC(=O)[C@H](CC(=O)O)NC(=O)[C@H](CO)NC(=O)[C@@H](N)Cc1c[nH]cn1)[C@@H](C)CC)[C@@H](C)O)C([2H])(C([2H])([2H])[2H])C([2H])([2H])[2H])C(=O)N[C@@H](CC(C)C)C(=O)N[C@@H](CO[C@@H]1O[C@H](CO)[C@@H](O[C@@H]2O[C@H](CO)[C@H](O)[C@H](O)[C@H]2O)[C@H](O)[C@H]1O)C(N)=O` [Compound 2LS98Lac], for which, in assay [2], the “TH-positive neurons in SNc, lesioned vs intact side” value was “neuronal cell death was attenuated”.
